Results reported in US9579299B2, “CNS pharmaceutical compositions and methods of use” (TARGIA PHARMACEUTICALS, priority 2008, dated 2017).
“And” between values parts separate entries of the source, which are not always exact repeats. Equal values may be shown once. “Also recorded” adds a separate entry of the source.

Legend:
[1] = CNS active agent; cited from earlier work
[2] = system: 8 patients suffering from GAD; experiment: Example 10: single blind trial of alprazolam with neuromodulators in GAD; assay type: in vivo, human; details: alprazolam 1 mg with pseudoephedrine 60 mg, guaifenesinER 600 mg 15 minutes later; one week
Method: The study was a single blind trial in which a panel of 8 patients suffering from GAD were administered alprazolam (1 mg), pseudoephedrine (60 mg), and guaifenesinER (600 mg). Subjects underwent an initial screening and then two weeks of testing with the medications of the study (see FIG. 7 for an illustration of the study scheme). Fourteen days prior to the first treatment session, subjects were screened with a standard medical/psychiatric history and physical exam (Screening Visit, Visit 1). Standard laboratory tests were performed at Screening Visit 1 including those of chemistry, hematology and urinalysis, urine test for drugs of abuse, HIV and hepatitis B and C serology tests, 12-lead resting electrocardiogram, and serum pregnancy test for females.
Prior to administration of the placebo treatment, the subjects were rated on the Hamilton Anxiety Scale, Quality of Life Questionnaire, and the Stanford Sleepiness Scale (SSS) (Visit 2, data not shown). Subjects complained of oversedation (SSS score of 4 or greater) from their psychopharmacologic regimen, which included benzodiazepine or alprazolam therapy.
Subjects were given a placebo medication that mimics the two neuromodulators for 7 days and underwent another series of tests at the end of this 7-day period (Visit 3). […]

[3] = system: four healthy volunteers; experiment: Example 7: Stanford Sleepiness Scale study with alprazolam; assay type: in vivo, human; details: for time until subjects were asleep: all four subjects; for 2 Hr SSS / 4 Hr SSS / 6 Hr SSS: individual subjects
Method: The research study was performed on four healthy volunteers, ages 25-41 years old and 60-75 kg. The study was carried out in two sessions with one week in between. During the study volunteers completed a test to measure sleepiness by Stanford Sleepiness Scale (SSS). This SSS test was done before doses of the compositions being evaluated and 2, 4 and 6 hours after such doses (see FIG. 5 for an illustration of the study scheme).
At the first session, volunteers received the treatment (Alprazolam 1.0 mg)+PLAC (placebo)+ and 15 minutes later another PLAC. […] Their SSS score at 2 hour time point was 6 (woozy, fighting sleep). […] The other 2 patients slept through the 2, 4 and 6 hour testing.
At the second study session, volunteers received the treatment (Alprazolam 1.0 mg+60 mg of pseudoephedrine) and 15 minutes later received 400 mg of guaifenesin. […] After 2 and half hours, three out of the four subjects woke up and stayed awake for the rest of the time. Their SSS scores for 4 hour time point test were 2, 3 and 5, for 6 hour time point test SSS scores were 1, 3, 2. The fourth subject woke up for the 6 hour time point test and their SSS score was 3.

[4] = system: one GAD patient, a person; experiment: Example 11: alprazolam with neuromodulators in one GAD patient; assay type: in vivo, human
Method: The study was performed on one GAD patient. Fourteen days prior to the first treatment session, the subject was screened with a standard medical/psychiatric history and physical exam. The subject was rated on the Hamilton Anxiety Scale the Stanford Sleepiness Scale (SSS).
During their second visit, immediately prior to administration of alprazolam and placebo, the subject was rated on the Hamilton Anxiety Scale, Quality of Life Questionaire and SSS (pre dose, time 0). Following these tests, the subject received a regular morning alprazolam dose and placebo to mimic pseudoephedrine. Fifteen minutes later, the subject received approximately 120 ml of water and placebo to mimic guaifenesin. The subject was rated on the SSS at 2 hours (anticipated peak plasma concentration) and 4 hours following administration alprazolam. The subject was given enough placebo medication to last for one week (until Visit 3) with the exact instructions to take their medications in the same manner as described above. During this 7-day period, the subject completed an SSS questionaire (Table 16, Placebo). Ratings on the SSS were recorded immediately before (pre) and 3 hours following (post) administration of alprazolam.
During Visit 3, the subject was rated on the Hamilton Anxiety Scale, Quality of Life Questionaire, and SSS 3 hours after initial dose. The subject was then given the active neuromodulators and told to start with them on the next day following ingestion of the regular alprazolam medication. The subject took pseudoephedrine with alprazolam and Mucinex 15 minutes later (neuromodulators were given no more than twice a day and not after 6 PM). Three hours after each dose, the subject recorded their SSS measurements (Table 16, Treatment). […] Throughout this week, the subject recorded SSS scores of 1 (high alertness, no sedatition).

[5] = parent drug; cited from earlier work
[6] = system: four healthy volunteers; experiment: Example 9: Stanford Sleepiness Scale study with lorazepam; assay type: in vivo, human; details: for 2:00 SSS / 4:00 SSS / 6:00 SSS / time until subject was asleep: individual subjects
Method: The purpose of this study was to determine if the co-administration of pseudoephedrine and guaifenesin with lorazepam is effective in reducing the sedation commonly seen with the administration of lorazepam alone. The research study was performed on four healthy volunteers ages 25-41 years old and 60-75 kg. The study was carried out by two sessions with a one-week interval between the sessions. During the study volunteers completed a set of tests to measure sleepiness by the Stanford Sleepiness Scale (SSS). This test was done before doses of study drug and 2, 4 and 6 hours after doses of study drug (see FIG. 5 for an illustration of the study scheme).
At the first study session volunteers received the treatment (Lorazepam 1.0 mg)+PLAC (placebo)+ and 15 minutes later another PLAC. […] They stayed awake at the 4- and 6-hour time points. Their SSS scores were 2. Two subjects were asleep in one hour. One of them slept 3.5 hours, their SSS at the 6-hour time point was 2. The second subject slept 2.5 hours, and their SSS scores for both the 4- and 6-hour time points were 2. […] They remained awake at the 4- and 6-hour time points. Their SSS scores were 2.
At the second study session volunteers received the treatment (Lorazepam 1.0 mg+60 mg of pseudoephedrine) and 15 minutes later received 400 mg of guaifenesin. During this session all four subjects remained awake most of the time. […] They missed the 2-hour time point measurement, and their SSS scores for the 4- and 6-hour time points were 2 and 3, respectively. […] Their SSS score for 2-hour time point was 2. This subject was asleep again within 3 and a half hours and slept for one hour. They missed the 4-hour time point, but was awake for measurements at the 6-hour time point (SSS was 2). […] They stayed awake the rest of the time, and their SSS scores for the 2-, 4-, and 6-hour time points were 3,2,3 respectively.

[7] = system: subject; experiment: Example 5: Lorazepam with pseudoephedrine and Mucinex, subject report; assay type: in vivo, human; details: Lorazepam 1 mg and pseudoephedrine 60 mg; 15 minutes later Mucinex 600 mg
Method: The subject reported that they took Lorazepam 1 mg and pseudoephedrine 60 mg at 12 noon and 15 minutes later ingested and Mucinex 600 mg.

[8] = system: Volunteer A, a healthy person; experiment: Example 6: Volunteer A, Lorazepam with and without neuromodulators; assay type: in vivo, human
Method: Volunteer A, a healthy person ([…], 95 Kg), was prescribed 1 mg Lorazepam (BDR) by their family doctor for anxiety and anxiety related insomnia. Volunteer A took Lorazepam in conjunction with the neuromodulators to reduce Lorazepam's associated sedative side-effects. Volunteer A, who felt their anxiety peak particularly on weekends, agreed to take Lorazepam during the day together with the neuromodulators. […] When taking Lorazepam simultaneously with Pseudoephedrine, Guaifenesin and, Volunteer A was sedated and less anxious.

[9] = First Visit Day on Placebo: Alprazolam 1.0 mg + placebo
[10] = First Visit Day on Placebo: Alprazolam 1.0 mg + placebo, listed as alprazolam
[11] = Second Visit Day on Active Neuromodulation: Alprazolam 1.0 mg + 60 mg pseudoephedrine, 400 mg guaifenesin 15 minutes later
[12] = Second Visit Day on Active Neuromodulation: Alprazolam 1.0 mg + 60 mg pseudoephedrine, 400 mg guaifenesin 15 minutes later, listed as alprazolam
[13] = First Visit Day on Placebo: Lorazepam 1.0 mg + placebo
[14] = First Visit Day on Placebo: Lorazepam 1.0 mg + placebo, listed as lorazepam
[15] = Lorazepam 1.0 mg + pseudoephedrine, guaifenesin 15 minutes later
[16] = Second Visit Day on Active Neuromodulation: Lorazepam 1.0 mg + 60 mg pseudoephedrine, 400 mg guaifenesin 15 minutes later
[17] = Second Visit Day on Active Neuromodulation: Lorazepam 1.0 mg + 60 mg pseudoephedrine, 400 mg guaifenesin 15 minutes later, listed as lorazepam
[18] = 1 mg Lorazepam together with Pseudoephedrine followed by Guaifenesin after 15 minutes
[19] = Lorazepam followed 15 minutes later by Guaifenesin
[20] = Lorazepam simultaneously with Pseudoephedrine, Guaifenesin
[21] = Lorazepam together with pseudoephedrine

In the case of `Cc1nnc2n1-c1ccc(Cl)cc1C(c1ccccc1)=NC2` [Alprazolam], the Tmax [1] is given as 1 to 2 h, the bioactivity [1] is given as 55% and the “sedation-related effects as measured by the SSS” value [2] is given as “significantly reduced”. For the same compound, the “time until subjects were asleep” value ([3]; Alprazolam 1.0 mg + placebo) was “within an hour and a half”, the “time until subjects were asleep” value ([3]; Alprazolam 1.0 mg + pseudoephedrine, guaifenesin 15 minutes later) was “within an hour and a half” and the “2 Hr SSS” value [3, 9] was 6. For the same compound, the “4 Hr SSS” value [3, 9] was 6, the “2 Hr SSS” value [3, 10] was “X - asleep (3×) and 6” and the “4 Hr SSS” value [3, 10] was “X - asleep (3×) and 6”. For the same compound, the “6 Hr SSS” value [3, 10] was “X - asleep (3×) and 3”, the “2 Hr SSS” value [3, 11] was “X - asleep” and the “4 Hr SSS” value [3, 11] was 2 and 3 and 5. The “6 Hr SSS” value [3, 11] was 1 and 3 and 2, the “4 Hr SSS” value [3, 12] was 2 and X - asleep and 5 and 3 and the “6 Hr SSS” value [3, 12] was 1 and 3 (2×) and 2. The total sleep time ([3]; second session, Alprazolam administrated with neuromodulators, all four patients) was 1.5 to 2.5 h, the “alertness and sedation by SSS, in words” value ([4]; 7-day period on alprazolam + placebo) was “significantly reduced alertness and increased sedation” and the “SSS Score” value ([4]; Placebo (alprazolam + placebo), post: 3 hours following alprazolam, Days 1-7) was “X - asleep”. The “SSS Score” value ([4]; Placebo column, 3 h post dose (before Day 1)) was “X - asleep”, the “SSS Score” value ([4]; Placebo column, Screen) was 6 and the “SSS Score” value ([4]; Treatment (alprazolam + pseudoephedrine, Mucinex 15 minutes later), post: three hours after dose, Days 8-15) was 1. For the same compound, the “SSS Score” value ([4]; Treatment (alprazolam + pseudoephedrine, Mucinex 15 minutes later), pre, Days 10-15) was 1, the “efficacy by Hamilton Anxiety Scale” value ([4]; alprazolam + active neuromodulators) was “did not show any reduction in the efficacy” and the “SSS data relative to placebo treatment, in words” value ([4]; week on alprazolam + active neuromodulators) was “dramatic improvement relative to the placebo treatment”. The “Elimination Half-Life” value [5] was 6 to 12 h.

For `O=C1Nc2ccc(Cl)cc2C(c2ccccc2Cl)=NC1O` (centres unmarked) [Lorazepam], the Tmax [1] is given as 2 h, the bioactivity [1] is given as 90% and the “2:00 SSS” value [6, 13] is given as “X - Asleep”. For the same compound, the “4:00 SSS” value [6, 13] was 2, the “6:00 SSS” value [6, 13] was 2 and the “4:00 SSS” value [6, 14] was 2 (2×) and 3 and X - Asleep. The “6:00 SSS” value [6, 14] was 2 (3×) and X - Asleep, the “sleep duration of individual subjects” value ([6]; Lorazepam 1.0 mg + placebo) was “three hours and 3.5 hours and 2.5 hours and 1 hour 15 minutes” and the “time until subject was asleep” value ([6]; Lorazepam 1.0 mg + placebo) was “within a half hour; also recorded: in one and a half hours”. The “sleep duration of individual subjects” value [6, 15] was “stayed awake throughout the study and half an hour and 15 minutes and one hour”, the “time until subject was asleep” value [6, 15] was “within an hour and a half” and the “2:00 SSS” value [6, 16] was 3 and 2. The “4:00 SSS” value [6, 16] was 3 and 2, the “6:00 SSS” value [6, 16] was 3 and 2 and the “2:00 SSS” value [6, 17] was 3 (2×) and X - Asleep and 2. The “4:00 SSS” value [6, 17] was 3 and 2 (2×) and X - Asleep, the “6:00 SSS” value [6, 17] was 3 (3×) and 2 and the total sleep time ([6]; second session, Lorazepam administrated with neuromodulators, two subjects) was 30 min. The subject-reported effects [7] was “a little “loopy””, the anxiety reported [8, 18] was “feeling at ease and anxiety free” and the sedation reported [8, 18] was “did not feel sedated”. The anxiety reported ([8]; Lorazepam alone) was “their anxiety was ameliorated”, the sedation reported ([8]; Lorazepam alone) was “severely sedated” and the “sleep in an afternoon” value ([8]; Lorazepam alone) was “over 3 hours”. For the same compound, the anxiety reported [8, 19] was “hostile and anxious”, the sedation reported [8, 19] was “somewhat sedated” and the anxiety reported [8, 20] was “less anxious”. The sedation reported [8, 20] was “sedated”, the anxiety reported [8, 21] was “upon waking felt much less anxious than without treatment” and the sedation reported [8, 21] was “as sedated as with Lorazepam alone”. The “Elimination Half-Life” value [5] was 10 to 20 h.
